Columns and labels:
Assay type in all cases: cell-based
HCC827 cells = experiment: Cell growth inhibition (CellTiter-Glo), HCC827; settings: Homo sapiens, 72 h, 3 days
Procedure, shortened: (§1)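 HCC827 cells in RPMI and A431 cells in DMEM (both 10% FBS) were seeded at 5000 cells/well and left overnight. They were then exposed to compound dilutions for 3 days at 37° C. Viability was read by CellTiter-Glo luminescence.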

[1] = tested on: HCC827-ASV cells (human EGFR exon 20 insertion mutant V769_D770insASV); experiment: Cell growth inhibition (CellTiter-Glo), HCC827-ASV; settings: 72 h, HCC827-ASV cells, 3 days, CellTiter-Glo, read-out: Cell growth inhibition, GI50 (nM) HCC827-ASV
Method: Generation of HCC827-SVD, HCC827-ASV, and HCC827-YVMA cell lines. The HCC827-SVD cell line was generated by first transducing HCC827 cells (ATCC) with lentiviral particles expressing codon-optimized human EGFR exon 20 insertion mutant D770_N771insSVD, and then selecting under 5 µg/mL puromycin treatment for a week. The resulting cells were further transduced with lentiviral particles carrying EGFR sgRNA and CAS9 to knockout the endogenous alleles of EGER and then selected under 500 µg/mL hygromycin B treatment for two weeks. The limiting dilution approach was used to subsequently generate the single clone of the HCC827-SVD stable cell line. Endogenous EGFR knockout was confirmed by Sanger sequencing of cell genomic DNA, and expression of exogenous mutant EGFR was verified by Western blot analysis.
HCC827-ASV and HCC827-YVMA cell lines were generated in a similar approach as HCC827-SVD, except that HCC827 cells (ATCC) were first transduced with lentiviral particles expressing codon-optimized human EGFR exon 20 insertion mutant V769_D770insASV and human ERBB2 exon20 insertion mutant A775_G776ins YVMA, respectively.
2. Cell Growth Inhibition for HCC827, HCC827-SVD, HCC827-ASV, HCC827-YVMA, and A431.
HCC827(ATCC), HCC827-SVD, HCC827-ASV, and HCC827-YVMA cells were seeded in 96-well plates at 5000 cells/well in 90 μL of RPMI growth medium containing 10% FBS and 1% Penicillin Streptomycin. A431 (ATCC) cells were seeded in 96-well plates at 5000 cells/well in 90 μL of DMEM growth medium containing 10% FBS and 1% Penicillin Streptomycin. Cells were incubated at 37° C. overnight and then administered with 10 μL 10× test compounds prepared in the growth medium at various concentrations. After administration of the compounds, cells were incubated at 37° C. for 3 days. Before the CellTiter-Glo assay, the plates were equilibrated at room temperature for approximately 30 minutes. 100 ul of CellTiter-Glo reagent (Promega) was added to each well. The plates were then incubated at room temperature for 10 minutes and luminescence was recorded by the EnSight® multimode plate reader (PerkinElmer). Table 7 listed selected compounds in cellular growth assay.

[2] = tested on: HCC827-YVMA cells (human ERBB2 exon20 insertion mutant A775_G776ins YVMA); experiment: Cell growth inhibition (CellTiter-Glo), HCC827-YVMA; settings: 72 h, HCC827-YVMA cells, 3 days, CellTiter-Glo, read-out: Cell growth inhibition, GI50 (nM) HCC827-YVMA
Procedure, shortened: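 HCC827 cells transduced with lentiviral codon-optimized mutant (ERBB2 A775_G776insYVMA or EGFR V769_D770insASV), endogenous EGFR knocked out by CRISPR, single clone selected. Cells seeded overnight in RPMI/10% FBS, then exposed to serially diluted compounds at 37 °C for 3 days; viability read by CellTiter-Glo luminescence.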

[3] = tested on: HCC827-SVD cells (human EGFR exon 20 insertion mutant D770_N771insSVD); experiment: Cell growth inhibition (CellTiter-Glo), HCC827-SVD; settings: 72 h, 3 days
Procedure, shortened: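 HCC827 cells with endogenous EGFR knocked out and lentivirally expressing the insertion mutant (single clone) were seeded at 5000 cells/well in RPMI with 10% FBS. After overnight, compounds added; 3 days at 37 °C, then CellTiter-Glo luminescence.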

A431 cells = experiment: Cell growth inhibition (CellTiter-Glo), A431; settings: Homo sapiens, A-431, 72 h, 3 days
Procedure, shortened: as §1

Row | SMILES | GI50 (HCC827 cells) [nM] | GI50 [1] [nM] | GI50 [2] [nM] | GI50 [3] [nM] | GI50 (A431 cells) [nM]
1 | C=CC(=O)N1CCC(c2c[nH]c3ncnc(Nc4ccc(Oc5ccnc(NC(=O)C6CCCC6)c5)cc4F)c23)CC1 [Compound 90, N-(4-(4-((5-(1-acryloylpiperidin-4-yl)-7H-pyrrolo[2,3-d]pyrimidin-4-yl)amino)-3-fluorophenoxy)pyridin-2-yl)cyclopentanecarboxamide] | 50 to 200 | < 50 | < 50 | 50 to 200 | 200 to 1000
2 | C=CC(=O)N1CCC(c2c[nH]c3ncnc(Nc4ccc(Oc5ccnc(Nc6ccccn6)c5)cc4F)c23)CC1 [Compound 135, 1-(4-(4-((2-fluoro-4-((2-(pyridin-2-ylamino)pyridin-4-yl)oxy)phenyl)amino)-7H-pyrrolo[2,3-d]pyrimidin-5-yl)piperidin-1-yl)prop-2-en-1-one] | > 1000 | < 50 | < 50 | < 50 | 200 to 1000
3 | C=CC(=O)N1CCC(c2c[nH]c3ncnc(Nc4ccc(Oc5ccnc(-n6ccc(OC)n6)c5)cc4F)c23)CC1 [Compound 136, 1-(4-(4-((2-fluoro-4-((2-(3-methoxy-1H-pyrazol-1-yl)pyridin-4-yl)oxy)phenyl)amino)-7H-pyrrolo[2,3-d]pyrimidin-5-yl)piperidin-1-yl)prop-2-en-1-one] | 200 to 1000 | < 50 | < 50 | 50 to 200 | > 1000
4 | C=CC(=O)N1CCC(c2c[nH]c3ncnc(Nc4ccc(Oc5ccnc(N6CC(O)(C(F)(F)F)C6)c5)cc4F)c23)CC1 [Compound 144, 1-(4-(4-((2-fluoro-4-((2-(3-hydroxy-3-(trifluoromethyl)azetidin-1-yl)pyridin-4-yl)oxy)phenyl)amino)-7H-pyrrolo[2,3-d]pyrimidin-5-yl)piperidin-1-yl)prop-2-en-1-one] | 50 to 200 | < 50 | < 50 | > 1000 | > 1000
5 | C=CC(=O)N1CCC(c2c[nH]c3ncnc(Nc4ccc(Oc5ccnc(N6CCN(C)CC6)c5)cc4F)c23)CC1 [Compound 152, 1-(4-(4-((2-fluoro-4-((2-(4-methylpiperazin-1-yl)pyridin-4-yl)oxy)phenyl)amino)-7H-pyrrolo[2,3-d]pyrimidin-5-yl)piperidin-1-yl)prop-2-en-1-one] | > 1000 | 200 to 1000 | 200 to 1000 | 200 to 1000 | > 1000
6 | C=CC(=O)N1CCC(c2c[nH]c3ncnc(Nc4ccc(OCc5ccsn5)c(Cl)c4)c23)CC1 [Compound 229, 1-(4-(4-((3-chloro-4-(isothiazol-3-ylmethoxy)phenyl)amino)-7H-pyrrolo[2,3-d]pyrimidin-5-yl)piperidin-1-yl)prop-2-en-1-one] | – | < 50 | < 50 | < 50 | –
7 | C=CC(=O)N1[C@@H]2CC[C@H]1CC(c1c[nH]c3ncnc(Nc4ccc(OCc5ccccn5)c(Cl)c4)c13)C2 (some centres unmarked) [Compound 230] | – | < 50 | < 50 | < 50 | –
8 | C=CC(=O)N1CCC(c2c[nH]c3ncnc(Nc4ccc(Oc5ccnc(NC(=O)C6CCC6)c5)cc4F)c23)CC1 [Compound 231, N-(4-(4-((5-(1-acryloylpiperidin-4-yl)-7H-pyrrolo[2,3-d]pyrimidin-4-yl)amino)-3-fluorophenoxy)pyridin-2-yl)cyclobutanecarboxamide] | – | 50 to 200 | 50 to 200 | 50 to 200 | –
9 | C=CC(=O)N1CCC(c2c[nH]c3ncnc(Nc4ccc(Oc5ccnc(NC(=O)C6CC6)c5)cc4F)c23)CC1 [Compound 232, N-(4-(4-((5-(1-acryloylpiperidin-4-yl)-7H-pyrrolo[2,3-d]pyrimidin-4-yl)amino)-3-fluorophenoxy)pyridin-2-yl)cyclopropanecarboxamide] | – | < 50 | < 50 | < 50 | > 1000
